Reference: patent publication US9518240B2, “Process for the treatment of liquefied hydrocarbons using 3-(piperazine-1-YL)propane-1,2-diol compounds” (Dow Global Technologies LLC, priority 2012, dated 2016)

Columns and labels:
[1] = heptane 10 g, toluene 0.1 g (internal standard), amine 2.5 g; mixed at 20° C. for 1 hour, decanted 15 minutes; average of three injections
Protocol: A solution of heptane (10 g), toluene (0.1 g) and the tested amine (2.5 g) are mixed at 20° C. for 1 hour. The mixture is decanted for 15 minutes and the neat heptane phase is analyzed by gas chromatography using toluene as internal standard.

[2] = pKa by automated Mettler Toledo titration; conditions: water (50 weight % aqueous amine solution)

| SMILES | area counts (averaged GC peak area of tested amine in neat heptane phase) [1] [area counts] | pKa [2] |
| --- | --- | --- |
| C1CNCCN1 [Piperazine] | 13748 |  |
| OCC(O)CN1CCNCC1 (stereo not drawn) [PPD, 3-(piperazine-1-YL)propane-1,2-diol] | 132 | 9.5 |
